Reference: patent USRE42890E1, “Furazanobenzimidazoles” (Basilea Pharmaceutica AG, priority 2003, dated 2011)

How the values were obtained:
[1] = tested on: Jurkat; assay: MTS proliferation assay, Jurkat; type: cell-based, human; details: 72 h incubation, read-out: MTS proliferation assay IC 50 Jurkat
Experimental: (§1) Cell lines are cultured in RPMI-1640 tissue culture medium containing either 5% or 10% fetal calf serum, 0.05 mM 2-mercaptoethanol, 2 mM glutamine and penicillin/streptomycin 50 μg/ml (complete medium) (Sigma, Buchs, Switzerland). General growth conditions are 37° C. and 7.5% CO2.
(§2) The following human cell lines (either EGFP transfected or not) are being used: HeLa (ATCC: CCL-2), KB (ATCC: CCL-17), MCF7 (ATCC: HTB-22), SK-BR-3 (ATCC: HTB-30), SK-Mel 1 (ATCC: HTB-67), SK-Mel 28 (ATCC: HTB-72), PC-3 (ATCC: CRL-1435), SW 480 (ATCC: CCL-228), NCl-H460 (ATCC: HTB-177), NCl-H1792 (ATCC: CRL-5895), HT1080 (ATCC: CCL-21), Jurkat (ATCC: TIB-152), Ramos (ATCC: CRL-1596), Raji (ATCC: CCL-86), H9 (ATCC: HTB-176), Hut78 (ATCC: TIB-161), K562 (ATCC: CCL 243), HL-60 (ATCC: CCL 240), U-87MG (ATCC: HTB-14), HepG2 (ATCC: HB-8065), U-2 OS (ATCC: HTB-96), Saos-2 (ATCC: HTB-85), U937 (ATCC: CRL 1593), Hs 578T (ATCC: HTB 126), HBL-100 (ATCC: HTB 124), Molt-4 (ATCC: CRL 1582).
(§3) The assay is performed in 96 well tissue culture plates. The cells (range: 1.5*10^3-10^4) are seeded out in 80 μl complete medium 24 h prior to compound treatment. The test compounds are added in 20 μl complete medium containing max 5% DMSO. The final compound concentrations in the assays are 10 μM, 3 μM, 1 μM and 0.3 μM, respectively. The assay plates are incubated for 72 h at culture conditions. The MTS reagent is prepared according to the manufacturer's protocol (Promega G1111). 20 μl MTS reagent are added to each well, the assay plates are quickly spun and incubated for another 3 h at culture conditions. Subsequently, the plates are shortly shaked and absorption measured with a microplate-reader at 492 nm.

[2] = tested on: HT1080; assay: MTS proliferation assay, HT1080; type: cell-based, human; details: HT1080, 72 h incubation; read-out: MTS proliferation assay IC 50 HT1080
Experimental: as §1, §2, §3

[3] = tested on: HeLa; assay: MTS proliferation assay, HeLa; type: cell-based, human; details: 72 h incubation, read-out: MTS proliferation assay IC 50 HeLa
Experimental: as §1, §2, §3

[4] = tested on: MRC5; assay: MTS proliferation assay, MRC5; type: cell-based; details: MRC5, 72 h incubation; read-out: MTS proliferation assay IC 50 MRC5
Experimental: as §1, §3

[5] = tested on: adherent cells or suspension cells; assay: Hoechst 33342 nuclear staining (fraction of apoptotic nuclei); type: cell-based; parameters: key: 0 relating to no activity; 1 relating to weak activity comprising less than 70% of the cells; score 2 relating to strong activity comprising more than 70% of the cells
Experimental: as §1
This assay is performed in 96 well tissue culture plates. Appropriate number of cells (adherent cells: 3-5*10^3, suspension cells: 8-10*10^3) are being seeded out in 80 μl complete medium. Adherent cells are incubated for 24 h for proper spreading out before addition of test compounds while suspension cells are immediately treated with test compounds after seeding out. The test compounds are added in 20 μl complete medium containing max 5% DMSO. […] After 24 h or 48 h incubation at culture conditions, 10 μl medium containing Hoechst 33342 dye (Sigma B-2261) at 2-5 μg/ml are added to each well. The assay plates are then further incubated for 30 minutes and subsequently analyzed with a standard inverted fluorescence microscope.
The readout allows the determination of the fraction of apoptotic nuclei as well as other morphological criteria specific for apoptosis as a function of the treatment. The following scores are used: 0 relating to no activity, 1 relating to weak activity comprising less than 70% of the cells and score 2 relating to strong activity comprising more than 70% of the cells.

Structure (SMILES) | IC50 [1] [µM] | IC50 [3] [µM] | IC50 [4] [µM] | Hoechst 33342 nuclear staining score ([5]; H460, conc 0.01 μm) | Hoechst 33342 nuclear staining score ([5]; H460, conc 0.1 μm) | Hoechst 33342 nuclear staining score ([5]; H460, conc 1 μm) | Hoechst 33342 nuclear staining score ([5]; HeLa, conc 0.01 μm) | Hoechst 33342 nuclear staining score ([5]; HeLa, conc 0.1 μm) | Hoechst 33342 nuclear staining score ([5]; HeLa, conc 1 μm) | Hoechst 33342 nuclear staining score ([5]; Jily, conc 0.01 μm) | Hoechst 33342 nuclear staining score ([5]; Jily, conc 0.1 μm) | Hoechst 33342 nuclear staining score ([5]; Jurkat, conc 0.01 μm) | Hoechst 33342 nuclear staining score ([5]; Jurkat, conc 0.1 μm) | Hoechst 33342 nuclear staining score ([5]; Jurkat, conc 1 μm) | Hoechst 33342 nuclear staining score ([5]; MRC5, conc 0.01 μm) | Hoechst 33342 nuclear staining score ([5]; MRC5, conc 0.1 μm) | Hoechst 33342 nuclear staining score ([5]; MRC5, conc 1 μm) | Hoechst 33342 nuclear staining score ([5]; PBLs, conc 0.01 μm) | Hoechst 33342 nuclear staining score ([5]; PBLs, conc 0.1 μm) | Hoechst 33342 nuclear staining score ([5]; PBLs, conc 1 μm) | also measured
N#Cc1ccc(C(=O)Cn2c(-c3nonc3N)nc3ccccc32)cc1 [Example 63] | > 1 | > 1 | > 1 | 0 | 0 | 0 | 0 | 0 | 0 | 0 | 0 | 0 | 0 | 0 | 0 | 0 | 0 | 0 | 0 | 0 | IC50 [2]: > 1 µM; Hoechst 33342 nuclear staining score ([5]; Jily, conc 1 μm): 0
Nc1nonc1-c1nc2ccccc2n1CC(=NO)c1ccc(-c2ccccc2)cc1 (mixture of isomers) [Example 27] | > 1 | > 1 | > 1 | 0 | 0 | 0 | 0 | 0 | 0 | – | – | 0 | 0 | 0 | 0 | 0 | 0 | 0 | 0 | 0 | –
Nc1nonc1-c1nc2ccccc2n1CC(=NO)c1ccc(Cl)cc1 (mixture of isomers) [Example 21] | > 1 | > 1 | > 1 | 0 | 0 | 0 | 0 | 0 | 0 | – | – | 0 | 0 | 0 | 0 | 0 | 0 | 0 | 0 | 0 | –
CON=C(Cn1c(-c2nonc2N)nc2ccccc21)c1ccc(-c2ccccc2)cc1 (mixture of isomers) [Example 28] | > 1 | > 1 | > 1 | 0 | 0 | 0 | 0 | 0 | 0 | 0 | 0 | 0 | 0 | 0 | 0 | 0 | 0 | 0 | 0 | 0 | Hoechst 33342 nuclear staining score ([5]; Jily, conc 1 μm): 0

Further lines, with some results ahead:

IC50 [1] [µM] | IC50 [3] [µM] | Structure (SMILES) | IC50 [4] [µM] | Hoechst 33342 nuclear staining score ([5]; H460, conc 0.01 μm) | Hoechst 33342 nuclear staining score ([5]; H460, conc 0.1 μm) | Hoechst 33342 nuclear staining score ([5]; H460, conc 1 μm) | Hoechst 33342 nuclear staining score ([5]; HeLa, conc 0.01 μm) | Hoechst 33342 nuclear staining score ([5]; HeLa, conc 0.1 μm) | Hoechst 33342 nuclear staining score ([5]; HeLa, conc 1 μm) | Hoechst 33342 nuclear staining score ([5]; Jily, conc 0.01 μm) | Hoechst 33342 nuclear staining score ([5]; Jily, conc 0.1 μm) | Hoechst 33342 nuclear staining score ([5]; Jurkat, conc 0.01 μm) | Hoechst 33342 nuclear staining score ([5]; Jurkat, conc 0.1 μm) | Hoechst 33342 nuclear staining score ([5]; Jurkat, conc 1 μm) | Hoechst 33342 nuclear staining score ([5]; MRC5, conc 0.01 μm) | Hoechst 33342 nuclear staining score ([5]; MRC5, conc 0.1 μm) | Hoechst 33342 nuclear staining score ([5]; MRC5, conc 1 μm) | Hoechst 33342 nuclear staining score ([5]; PBLs, conc 0.01 μm) | Hoechst 33342 nuclear staining score ([5]; PBLs, conc 0.1 μm) | Hoechst 33342 nuclear staining score ([5]; PBLs, conc 1 μm) | also measured
0.1 to 1 | > 1 | CON=C(Cn1c(-c2nonc2N)nc2ccccc21)c1cccc(OC)c1 (mixture of isomers) [Example 25] | > 1 | 0 | 0 | 0 | 0 | 0 | 0 | 0 | 0 | 0 | 0 | 1 (1 relating to weak activity comprising less than 70% of the cells) | 0 | 0 | 0 | 0 | 0 | 0 | Hoechst 33342 nuclear staining score ([5]; Jily, conc 1 μm): 0
0.1 to 1 | > 1 | COc1ccc(C(Cn2c(-c3nonc3N)nc3ccccc32)=NO)cc1 (mixture of isomers) [Example 20] | > 1 | 0 | 0 | 0 | 0 | 0 | 0 | – | – | 0 | 0 | 0 | 0 | 0 | 0 | 0 | 0 | 0 | –
0.1 to 1 | 0.1 to 1 | CON=C(Cn1c(-c2nonc2N)nc2ccccc21)c1ccc(Cl)cc1 (mixture of isomers) [Example 22] | 0.1 to 1 | 0 | 0 | 0 | 0 | 0 | 2 (score 2 relating to strong activity comprising more than 70% of the cells) | – | – | 0 | 0 | 2 (score 2 relating to strong activity comprising more than 70% of the cells) | 0 | 0 | 0 | 0 | 0 | 0 | –
0.1 to 1 | 0.1 to 1 | CON=C(Cn1c(-c2nonc2N)nc2ccccc21)c1cccc(Cl)c1 (mixture of isomers) [Example 37] | 0.1 to 1 | 0 | 0 | 0 | 0 | 0 | 0 | 0 | 0 | – | – | – | 0 | 0 | 1 (1 relating to weak activity comprising less than 70% of the cells) | 0 | 0 | 0 | Hoechst 33342 nuclear staining score ([5]; Jily, conc 1 μm): 2 (score 2 relating to strong activity comprising more than 70% of the cells)
